For orientation: efflux ratio means a quotient of directional permeabilities that is used to spot active efflux. For orientation: kinetic solubility means solubility judged after dilution from a stock solution rather than from solid. By pKa is commonly meant the pH at which an ionisable group is half protonated. The low end stands for a stronger acid or weaker base, the high end for a weaker acid or stronger base. What is called logD is lipophilicity at a set pH, counting ionised and neutral species. Lower therefore signals lower lipophilicity.

≈ marks a conversion by molar mass, not a printed value.

Data set [1] can be described thus: Efflux ratio of apparent permeability from basolateral to apical side to apical to basolateral side of human Caco2 cells. Type of data set: ADME, cell-based. To be noted: Caco-2. A general note: Caco-2 cells form a polarised layer with tight junctions and transporters.
The nature of data set [2]: Solubility of the compound in phosphate buffered saline at pH 7.4 containing 1% DMSO after 18 hrs by UPLC-MS method. Type of data set: physicochemical. The note with it: phosphate buffered saline with 1% DMSO.
The nature of data set [3]: Dissociation constant, pKa of the compound for N34 pyridine group by dip probe absorption spectroscopy. The class given is physicochemical.
Data set [4] is described as follows: Dissociation constant, pKa of the compound for N15, 3'-amine group by dip probe absorption spectroscopy. The class given is physicochemical.
Data set [5] in a line: Lipophilicity, log D of the compound by shake flask technique. The class given is physicochemical. The note with it: octanol/water.

In the case of `C[C@H](CO)N1C(=O)c2cccc(NC(=O)c3ccncc3)c2O[C@@H](CN(C)Cc2ccc(Oc3ccccc3)cc2)[C@@H]1C`, the efflux ratio in data set [1] was 0.42. In data set [2], this compound displayed a kinetic solubility at 18 h of 2 µM (≈ 1.16 µg/mL). Moreover, the results for the pKa in data set [3] and in data set [4] were 2.76 and 6.14, respectively.

As for `C[C@@H]1[C@H](CN(C)Cc2ccc(Oc3ccccc3)cc2)Oc2c(NC(=O)c3ccncc3)cccc2C(=O)N1[C@@H](C)CO`, the logD in data set [5] was determined as 3.4. The efflux ratio in data set [1] was determined as 0.48. Also, the kinetic solubility at 18 h in data set [2] is 87 µM (≈ 50.5 µg/mL). In addition, the results for the pKa in data set [3] and in data set [4] were 2.97 and 7.16, respectively.

In the case of `C[C@@H](CO)N1C(=O)c2cccc(NC(=O)c3ccncc3)c2O[C@@H](CN(C)Cc2ccc(Oc3ccccc3)cc2)[C@@H]1C`, in data set [1], the efflux ratio came to 0.36. In data set [2], this compound displayed a solubility (kinetic) at 18 h of 1 µM (≈ 0.581 µg/mL). For the same compound, the pKa was 2.76 in data set [3] and 6.08 in data set [4].

Turning to `C[C@@H]1[C@@H](CN(C)Cc2ccc(Oc3ccccc3)cc2)Oc2c(NC(=O)c3ccncc3)cccc2C(=O)N1[C@@H](C)CO`, in data set [1], the efflux ratio was found to be 0.1. Further, the solubility (kinetic) at 18 h in data set [2] was determined as 1 µM (≈ 0.581 µg/mL). Further, the figures for the pKa in data set [3] and in data set [4] were 2.77 and 6.18, respectively.

In turn, `C[C@H](CO)N1C(=O)c2cccc(NC(=O)c3ccncc3)c2O[C@H](CN(C)Cc2ccc(Oc3ccccc3)cc2)[C@@H]1C` displayed a logD in data set [5] of 3.4. The efflux ratio in data set [1] was determined as 0.36. In data set [2], this compound gave a solubility (kinetic) at 18 h of 98 µM (≈ 56.9 µg/mL). For the same compound, the pKa came to 2.98 in data set [3] and 7.16 in data set [4].

`C[C@H](CO)N1C(=O)c2cccc(NC(=O)c3ccncc3)c2O[C@@H](CN(C)Cc2ccc(Oc3ccccc3)cc2)[C@H]1C`: in data set [5], the pH-dependent lipophilicity (logD) came to 3.4. Further, the efflux ratio in data set [1] came to 0.47. In data set [2], this compound showed a kinetic solubility at 18 h of 86 µM (≈ 49.9 µg/mL). In addition, the pKa in data set [3] is 2.98; in data set [4], 7.07.

Turning to `C[C@H](CO)N1C(=O)c2cccc(NC(=O)c3ccncc3)c2O[C@H](CN(C)Cc2ccc(Oc3ccccc3)cc2)[C@H]1C`, in data set [1], the efflux ratio worked out at 0.31. Moreover, the solubility (kinetic) at 18 h in data set [2] turned out to be 1 µM (≈ 0.581 µg/mL). The pKa in data set [3] came to 2.77; in data set [4], 6.08.

For the compound `C[C@@H](CO)N1C(=O)c2cccc(NC(=O)c3ccncc3)c2O[C@H](CN(C)Cc2ccc(Oc3ccccc3)cc2)[C@@H]1C`, the pH-dependent lipophilicity (logD) in data set [5] turned out to be 3.4. Also, the efflux ratio in data set [1] stood at 0.41. The same compound yielded a kinetic solubility at 18 h in data set [2] of 93 µM (≈ 54 µg/mL). The pKa in data set [3] was 2.98; in data set [4] it was 7.08.
